Here are results for two molecules from patent US20210322369A1, “COMPOSITION FOR IMPROVING INTESTINAL ENVIRONMENT AND METHOD FOR IMPROVING INTESTINAL FLORA” (SUNTORY HOLDINGS LIMITED, priority 2018, published 2021).

The test system of data set [1] is gut flora (Akkermansia bacteria, Firmicutes bacteria, Bacteroidetes bacteria). Briefly: Gut flora improving action in high fat diet mouse model, 16S rRNA gene analysis of feces after eight weeks of intake. In kind it is in vivo, Mice (C57BL/6J). Particulars: high fat diet mice; for abundance ratio of Firmicutes bacteria to Bacteroidetes bacteria: eight weeks, High fat diet group 7.4, Regular diet group 4.2; for abundance ratio of Firmicutes bacteria to Bacteroidetes bacteria / abundance proportion of Akkermansia bacteria in the gut flora: feces; for change in the abundance ratio of Firmicutes bacteria to Bacteroidetes bacteria, in words: oral intake for eight weeks; for change in the abundance ratio of Firmicutes bacteria to Bacteroidetes bacteria, in words / abundance proportion of Akkermansia bacteria in the gut flora: compared to High fat diet group; for abundance proportion of Akkermansia bacteria in the gut flora: oral intake once a day for eight weeks. From the text:
The influence of xanthohumol and isoxanthohumol on the gut flora was examined by the following procedure using a high fat diet mouse model. […] The dosage is an intake (mg) of the test substance per kg body weight per day. In the table, “Regular diet” is control diet “[…]” (Research Diets), and “60 kcal % High-fat diet” is very high-fat diet “D12492” (Research Diets); “Catechins” is a preparation “Polyphenon […]” (product name, Mitsui Morin Co., Ltd.). Catechins were used as a positive control. Xanthohumol and isoxanthohumol were the standard samples (purity of 95% or higher) obtained in Preparation Example 1. [table] Mice (C57BL/6J, male, 7 weeks of age, CLEA Japan, Inc.) were purchased, and they were quarantined and acclimatized for one week. […] The selected animals were divided into groups (n=8 in each group) in the group structure shown in Table 1 by the stratified continuous randomization method based on body weight at the end of the acclimatization period. They were fed with free access to specific basic feed and water. The test substance was orally fed once a day for eight weeks. A dosing solution containing a mixture of the test substance and a solvent was used to administer the test substance. The solvent was a 0.5 wt % sodium carboxymethylcellulose (CMC) aqueous solution. The volume of the dosing solution to be administered to each mouse was 10 mL/kg. The amount of the test substance and the volume of the solution were calculated based on the latest body weight. 16S rRNA gene analysis was performed on feces (fresh feces) collected eight weeks after the start of intake of the test substance. 16S rRNA gene analysis was performed by the method described in Examples of JP 2018-8911 A. The abundance proportions (abundance ratio) of intestinal bacteria found in the feces were determined by the gene analysis as the abundance ratio of bacteria in the gut flora. FIG. 1 is a graph showing the abundance proportion (group average) of bacteria in the gut flora of each group. The abundance proportion shown in FIG. 1 is the ratio (occupancy) of each species of bacteria to the total bacterial count in the feces. Verrucomicrobia in FIG. 1 is a higher rank to which Akkermansia bacteria belong. All the Verrucomicrobia bacteria in this analysis were Akkermansia bacteria. The dosage (mg/kg) of isoxanthohumol (IXN) and xanthohumol (XN) in FIG. 1 is the intake (mg) of the test substance per kg body weight per day. […] The abundance ratio of Firmicutes bacteria to Bacteroidetes bacteria was as follows: 4.2 in Regular diet group; 7.4 in High fat diet group; 1.7 in Catechins group; 3.2 in Xanthohumol (60 mg/kg) group; 6.0 in Isoxanthohumol (60 mg/kg) group (Group No. 5); and 2.4 in Isoxanthohumol (180 mg/kg) group (Group No. 6).

Data set [2] deals with gut flora (Akkermansia bacteria). Briefly: Example 2: 16S rRNA gene analysis of cecal contents two weeks after the start of intake. In kind it is in vivo. The conditions noted are these: 60 mg/kg body weight per day, compared to High fat diet group. The protocol:
16S rRNA gene analysis was performed on feces (fresh feces) collected eight weeks after the start of intake of the test substance. 16S rRNA gene analysis was performed by the method described in Examples of JP 2018-8911 A. The abundance proportions (abundance ratio) of intestinal bacteria found in the feces were determined by the gene analysis as the abundance ratio of bacteria in the gut flora.
Another test was performed using isoxanthohumol as the test substance, with partial modification in the group structure and dosage design. In this test, the cecal contents were collected two weeks after the start of intake of the test substance, and 16S rRNA gene analysis was performed in the same manner as described above.

The conditions of data set [3]: 100° C.; cited from earlier work.

In the case of `COc1cc(O)c(CC=C(C)C)c(O)c1C(=O)/C=C/c1ccc(O)cc1` [Xanthohumol], in data set [1] (60 mg/kg/day oral), the “abundance ratio of Firmicutes bacteria to Bacteroidetes bacteria” value is 3.2. Also, in data set [1], the “change in the abundance ratio of Firmicutes bacteria to Bacteroidetes bacteria, in words” value is “decrease” and the “abundance proportion of Akkermansia bacteria in the gut flora” value is on record as “increase”.

In the case of `COc1cc(O)c(CC=C(C)C)c2c1C(=O)CC(c1ccc(O)cc1)O2` (stereo not drawn) [Isoxanthohumol], the “abundance ratio of Firmicutes bacteria to Bacteroidetes bacteria” value in data set [1] (60 mg/kg/day oral) came out at 6.0. In addition, the “abundance ratio of Firmicutes bacteria to Bacteroidetes bacteria” value in data set [1] (180 mg/kg/day oral) turned out to be 2.4. Also, in data set [1], the “change in the abundance ratio of Firmicutes bacteria to Bacteroidetes bacteria, in words” value is given as “decrease” and the “abundance proportion of Akkermansia bacteria in the gut flora” value is “increase”. Also, in data set [2], the “abundance ratio of Akkermansia bacteria in the gut flora” value is “increase”. Further, the “stability at high temperature” value in data set [3] is recorded as “stable”.
